System: 991263-137-R1-J2-PDC complex spheroid viability
Assay: Anticancer human tumor 991263-137-R1-J2-PDC patient-derived colon adenocarcinoma cell line growth inhibition [POLQ]
Conditions: for IC50: curve of first compound; for viability, T/C: stronger effect = lower value
Method: Multicellular complex tumor spheroid response to Polymerase (POL) inhibitors (novobiocin, ART-558, RP6685) in combination with a variety of drugs and investigational agents in selected tumor cell lines
The POL inhibitors (novobiocin, ART-558, and RP6685) were evaluated both individually and in combination with standard of care and investigational anticancer small molecules within a complex spheroid model of solid tumors. . Complex spheroids include a stromal component modeled by human endothelial cells (HUVEC) and fibroblasts modeled by human mesenchymal stem cells (MSCs). The concentration ranges selected for each drug and investigational agent were based upon clinically achievable concentrations if the clinical Cmax of the agent was known.
Compounds. The drugs and investigational agents: novobiocin (NSC847541), ART-558 (NSC835418), RP-6685 (NSC848927), peposertib (NSC802822), ceralasertib (NSC780249), elimusertib (NSC800525), camonsertib (NSC841442), AZD-1390 (NSC803789), olaparib (NSC753686), talazoparib (NSC767125), rucaparib (NSC756644), sotorasib (NSC818433), MRTX-1133 (NSC836407), SN-38 (NSC673596), topotecan (NSC609699), epotoside (NSC141540), doxorubicin (NSC123127), gemcitabine (NSC613327), 5-fluorouracil (NSC19893), paclitaxel (NSC125973), vemurafenib (NSC761431), MSA-2 (NSC828583), SN-011 (NSC837082), adavosertib (NSC754352), prexasertib (NSC758257), carboplatin (NSC241240) and oxaliplatin (NSC266046), were obtained from the National Cancer Institute (NCI) Developmental Therapeutics Program Chemical Repository (21). The FDA-approved anticancer drug set is available from the Developmental Therapeutics Program at https://dtp.cancer.gov/organization/dscb/obtaining/. […] The stock solutions were prepared in dimethyl sulfoxide (DMSO, Sigma-Aldrich, St. Louis, MO, cat. D2650), except for the platinum compounds which were prepared in saline (Quality Biological, Gaithersburg, MD, cat. 114-055-101), at 800-fold the tested concentration and stored at -70 degrees C prior to their use. All drugs and investigational agents were tested over a range starting from a high concentration at or near the clinical Cmax and decreasing in half-log increments. If the clinical Cmax for an agent had not been determined, the highest concentration tested was 10 microM, except for SN-38, which was tested at a high concentration of 1 microM.
Cell Culture. All cells were maintained in an incubator at 37 degrees C and 5% CO2 with 95% humidity. The PDC lines were cultured according to standard operating procedures established by the NCI PDMR (https://pdmr.cancer.gov). Table 3 of the manuscript, lists the cell lines along with the number of the three cell types plated to form the mct-spheroids and media for tumor cell growth. After thawing, all PDC lines, except 997537-175-T-J1-PDC and 415267-285-R-J2-PDC, were cultured in Matrigel-coated flasks prepared with a working solution of 1X Ham's F-12 nutrient mix, without supplementation (Thermo Fisher Scientific, cat. 11765054), 100 U/mL penicillin-streptomycin (Thermo Fisher Scientific, cat. 15140122), and 2.5% Matrigel (Corning Inc., Corning, NY, cat. 354248) for the first three passages. The two PDC lines 997537-175-T-J1-PDC and 415267-285-R-J2-PDC were cultured on uncoated flasks. The 857933-349-R-J2-PDC line was cultured in 6C/Colon 1B media containing advanced DMEM/F-12 (Thermo Fisher Scientific, cat. 12634028), 10 mM HEPES (Thermo Fisher Scientific, cat. 15630080), 1X GlutaMAX supplement (Thermo Fisher Scientific, cat. 35050061), 0.1 mg/mL primocin (InvivoGen, San Diego, CA, cat. ant-pm-2), 10% defined fetal bovine serum, heat inactivated (HyClone Laboratories Inc., Logan, UT, cat. SH30070.03HI), 50% L-WRN conditioned media (ATCC, cat. CRL-3276), 1.25 mM N-Acetyl-L-cysteine (Sigma-Aldrich, cat. A9165), 10 mM nicotinamide (Sigma-Aldrich, cat. N0636), 1X B-27 supplement (Thermo Fisher Scientific, cat. 17504044), 1X N-2 supplement (Thermo Fisher Scientific, cat. […]

[1] = second compound 0.0316 µM, first compound 0.0316 µM
[2] = second compound 0.0316 µM, first compound 0.1 µM
[3] = second compound 0.0316 µM, first compound 0.316 µM
[4] = second compound 0.0316 µM, first compound 1 µM
[5] = second compound 0.0316 µM, first compound 3.16 µM
[6] = second compound 0.0316 µM, first compound 10 µM
[7] = second compound 0.1 µM, first compound 0.0316 µM
[8] = second compound 0.1 µM, first compound 0.1 µM
[9] = second compound 0.1 µM, first compound 0.316 µM
[10] = second compound 0.1 µM, first compound 1 µM
[11] = second compound 0.1 µM, first compound 3.16 µM
[12] = second compound 0.1 µM, first compound 10 µM
[13] = second compound 0.316 µM, first compound 0.0316 µM
[14] = second compound 0.316 µM, first compound 0.1 µM
[15] = second compound 0.316 µM, first compound 0.316 µM
[16] = second compound 0.316 µM, first compound 1 µM
[17] = second compound 0.316 µM, first compound 3.16 µM
[18] = second compound 0.316 µM, first compound 10 µM
[19] = second compound 1 µM, first compound 0.0316 µM
[20] = second compound 1 µM, first compound 0.1 µM
[21] = second compound 1 µM, first compound 0.316 µM
[22] = second compound 1 µM, first compound 1 µM
[23] = second compound 1 µM, first compound 3.16 µM
[24] = second compound 1 µM, first compound 10 µM
[25] = second compound 3.16 µM, first compound 0.0316 µM
[26] = second compound 3.16 µM, first compound 0.1 µM
[27] = second compound 3.16 µM, first compound 0.316 µM
[28] = second compound 3.16 µM, first compound 1 µM
[29] = second compound 3.16 µM, first compound 3.16 µM
[30] = second compound 3.16 µM, first compound 10 µM
[31] = second compound 10 µM, first compound 0.0316 µM
[32] = second compound 10 µM, first compound 0.1 µM
[33] = second compound 10 µM, first compound 0.316 µM
[34] = second compound 10 µM, first compound 1 µM
[35] = second compound 10 µM, first compound 3.16 µM
[36] = second compound 10 µM, first compound 10 µM
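Note: spheroids exposed to compounds for 7 days before readout.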
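Throughout, for viability, T/C: 100% = DMSO vehicle control viability.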

Compound: CC1COCCN1c1cc(C2(O)CC3CCC(C2)O3)c2cnn(-c3ccn[nH]3)c2n1 (centres undefined) + COC1C(OC(N)=O)C(O)C(Oc2ccc3c(O)c(NC(=O)c4ccc(O)c(CC=C(C)C)c4)c(=O)oc3c2C)OC1(C)C
- IC50 (second compound 0.0316 µM): 1460 nM
- IC50 (second compound 0.1 µM): 1930 nM
- IC50 (second compound 0.316 µM): 947 nM
- IC50 (second compound 1 µM): 1580 nM
- IC50 (second compound 3.16 µM): 1870 nM
- IC50 (second compound 10 µM): 1450 nM
- viability, T/C [1]: 85.5%
- viability, T/C [2]: 95.5%
- viability, T/C [3]: 81.5%
- viability, T/C [4]: 58.6%
- viability, T/C [5]: 33.2%
- viability, T/C [6]: 29.4%
- viability, T/C [7]: 102%
- viability, T/C [8]: 95.3%
- viability, T/C [9]: 80.4%
- viability, T/C [10]: 64.8%
- viability, T/C [11]: 39%
- viability, T/C [12]: 25%
- viability, T/C [13]: 106%
- viability, T/C [14]: 100%
- viability, T/C [15]: 78.9%
- viability, T/C [16]: 50.5%
- viability, T/C [17]: 26.5%
- viability, T/C [18]: 26.1%
- viability, T/C [19]: 104%
- viability, T/C [20]: 106%
- viability, T/C [21]: 85.7%
- viability, T/C [22]: 59.8%
- viability, T/C [23]: 36.2%
- viability, T/C [24]: 23.7%
- viability, T/C [25]: 89.8%
- viability, T/C [26]: 76.4%
- viability, T/C [27]: 73.9%
- viability, T/C [28]: 56.1%
- viability, T/C [29]: 46%
- viability, T/C [30]: 21.6%
- viability, T/C [31]: 84.7%
- viability, T/C [32]: 95.8%
- viability, T/C [33]: 74.3%
- viability, T/C [34]: 56.4%
- viability, T/C [35]: 36.7%
- viability, T/C [36]: 21.2%

Compound: CCc1cc2c(N3CCc4c(cc(Cn5ccnc5)cc4-c4cn(C)nc4C(F)(F)F)C3=O)ccnc2c(OC)n1 + COC1C(OC(N)=O)C(O)C(Oc2ccc3c(O)c(NC(=O)c4ccc(O)c(CC=C(C)C)c4)c(=O)oc3c2C)OC1(C)C
- IC50 (second compound 0.0316 µM): > 10000 nM
- IC50 (second compound 0.1 µM): > 10000 nM
- IC50 (second compound 0.316 µM): > 10000 nM
- IC50 (second compound 1 µM): > 10000 nM
- IC50 (second compound 3.16 µM): > 10000 nM
- IC50 (second compound 10 µM): > 10000 nM
- viability, T/C [1]: 99.5%
- viability, T/C [2]: 104%
- viability, T/C [3]: 110%
- viability, T/C [4]: 87.6%
- viability, T/C [5]: 102%
- viability, T/C [6]: 86.7%
- viability, T/C [7]: 104%
- viability, T/C [8]: 110%
- viability, T/C [9]: 87.4%
- viability, T/C [10]: 100%
- viability, T/C [11]: 90.8%
- viability, T/C [12]: 81%
- viability, T/C [13]: 105%
- viability, T/C [14]: 108%
- viability, T/C [15]: 97.1%
- viability, T/C [16]: 104%
- viability, T/C [17]: 95.4%
- viability, T/C [18]: 99.9%
- viability, T/C [19]: 101%
- viability, T/C [20]: 107%
- viability, T/C [21]: 93.9%
- viability, T/C [22]: 86.3%
- viability, T/C [23]: 102%
- viability, T/C [24]: 90.7%
- viability, T/C [25]: 99.2%
- viability, T/C [26]: 122%
- viability, T/C [27]: 113%
- viability, T/C [28]: 96.4%
- viability, T/C [29]: 106%
- viability, T/C [30]: 107%
- viability, T/C [31]: 113%
- viability, T/C [32]: 106%
- viability, T/C [33]: 108%
- viability, T/C [34]: 109%
- viability, T/C [35]: 101%
- viability, T/C [36]: 91.3%

— PubChem BioAssay AID1963828 (Molecular Pharmacology Branch, DTP, NCI, 2024)
